Experimental findings from patent US12303547B2, “Compound, use, pharmaceutical composition, method of diagnosis, method of treatment, and method of transportation and/or internalization of a compound into eukaryotic cells” (priority 2018, dated 2025) are described below.

Where no end group is shown, it is not given here.

In experiment [1] the test system is murine renal adenocarcinoma cells (RENCA). Put plainly: MTT cell viability assay, RENCA. The settings on record: 48 h, preliminary results. Format: cell-based. The text has this:
(§1) Human melanomas (SK-MEL-28), pancreatic adenocarcinomas (MIA-PaCa-2) and murine renal adenocarcinoma cells (RENCA) were obtained and cultured according to the instructions of the American Type Culture Collection (ATCC, Manassas, VA). Human dermal fibroblast cells (HDFa) were obtained from Invitrogen. Endothelial cells were obtained from human umbilical veins (HUVECs), as previously described^11. The study received prior approval from the Research Ethics Committee and the free and informed consent form was obtained from female donors. HUVECs were seeded in T75 flasks previously covered with 2% gelatin and cultured in RPMI medium, supplemented with 10% fetal bovine serum, L-glutamine (2 mM), streptomycin sulfate ([…]), penicillin (100 U/ml) sodium pyruvate ([…]), 2-mercaptoethanol ([…]), ECGF ([…]) and heparin (45 μg/ml), pH 7.4. In all experiments, HUVEC were used in the second or third passages. All cell lines were routinely cultured in a humidified 5% CO2 incubator at 37° C.
(§2) Cell viability was measured by the 3-(4,5-dimethylthiazol-2-yl)-2,5-diphenyltetrazolium bromide (MTT) assay. […] Afterwards, the medium was discarded, the dark blue crystalline formazan product was dissolved in […] of dimethyl sulfoxide (DMSO), and the absorbance was measured in a Spectra MAX 190 microplate reader (Molecular Devices, Sunnyvale, USA) at 540 nm.
(In general: Formazan colour is commonly taken as a measure of viable cells.)

The test system of the next experiment is Mia PaCa-2. Put plainly: Cell uptake study with Alexa Fluor 488 labelled molecules, Mia PaCa-2. The settings on record: for Uptake by tumor cells: Alexa Fluor 488 labelled. Format: cell-based, human. The text has this:
(§3) The compound of the invention (C-ter) was chemically coupled with the amine reactive dye (Alexa fluor 488 […] tetra fluorophenyl ester (TFP)) using the Microscale Alexa Fluor® 488 Protein Labeling kit (Molecular Probes), following the manufacturer's instructions. Other entities (Amblyomin-X and its fragment called Kunitz domain) were also modified as described above, for comparative analysis.
(§4) The dye-conjugated protein was named 488-Amblyomin-X. Briefly, cells (10^4 cells/well) were seeded into 96-well plates. […] The cells were then incubated with Alexa Fluor 555 transferrin (100 μg/ml), the cholera toxin B subunit Alexa Fluor 555 (50 μg/ml) or Alexa Fluor 555 dextran (1 mg/ml) in binding medium to 37° C. for 20 min. Nuclei were stained with Hoechst 332. Then, green and red fluorescence were monitored using a Molecular Devices ImageXpress Micro Confocal plate scanning microscope (Molecular Devices, Sunnyvale, CA) or using LSM 510 Meta confocal microscope (Zeiss, Jena, Germany) followed by evaluation of overlap between 488-Amblyomin-X and endocytosis markers using MetaXpress software (Molecular Devices, Sunnyvale, CA).

The subject of a further experiment is SK-MEL-28. Briefly: Cell uptake study with Alexa Fluor 488 labelled molecules, SK-MEL-28. Format: cell-based, human. The settings on record: for Uptake by tumor cells: Alexa Fluor 488 labelled.
Source text: as §3, §4

The next experiment concerns HDFa. Briefly: Cell uptake study (confocal), HDFa. It is filed as cell-based, human. The settings on record: 4 h, preliminary experiments.
Source text: as §3
(§5) The dye-conjugated protein was named 488-Amblyomin-X. Briefly, cells (10^4 cells/well) were seeded into 96-well plates. Once stabilized, the culture medium was replaced and cells were incubated with 488-Amblyomin-X (20 μM) at 37° C. for 2 h, 4 h and 24 h. The cells were then incubated with Alexa Fluor 555 transferrin (100 μg/ml), the cholera toxin B subunit Alexa Fluor 555 (50 μg/ml) or Alexa Fluor 555 dextran (1 mg/ml) in binding medium to 37° C. for 20 min. Nuclei were stained with Hoechst 332. Then, green and red fluorescence were monitored using a Molecular Devices ImageXpress Micro Confocal plate scanning microscope (Molecular Devices, Sunnyvale, CA) or using LSM 510 Meta confocal microscope (Zeiss, Jena, Germany) followed by evaluation of overlap between 488-Amblyomin-X and endocytosis markers using MetaXpress software (Molecular Devices, Sunnyvale, CA).

For the next experiment, the system named is SK-MEL-28 cells. Briefly: Role of PS in uptake (Na3VO4 or Annexin V pretreatment). It is filed as cell-based, human. The protocol:
To investigate the role of PS in C-ter uptake, cells were pretreated with Annexin V (5 μg/mL) or Na3VO4 (25 μM) and then incubated with fluorochrome-conjugated molecules for 4 hours.

The test system of experiment [2] is human umbilical vein endothelial cells (HUVEC). Briefly: MTT cell viability assay, HUVEC. It is filed as cell-based. The settings on record: 48 h, preliminary results.
Source text: as §1, §2

Another experiment concerns HUVEC. Put plainly: Cell uptake study (confocal), HUVEC. Format: cell-based, human. To be noted: 4 h, preliminary experiments.
Source text: as §3, §5

The subject of experiment [3] is human dermal fibroblasts (HDFa). Briefly: MTT cell viability assay, HDFa. Format: cell-based. To be noted: 48 h, preliminary results.
Source text: as §1, §2

The next experiment concerns Tumor cell lines. Put plainly: Co-localization with endocytosis and intracellular markers. It is filed as cell-based, human. The protocol: as §5
Tumor cells were cultured in 96-well plates (10^4 cells/well) and treated with 488-Amblyomin-X (20 μM) to indicate times. Cells were washed twice with PHEM-glycine buffer (2 mM HEPES, 10 mM EGTA, 2 mM MgCl2, 60 mM Pipes, 100 mM glycine, pH 6.9) and fixed with 4% paraformaldehyde for 3 h at room temperature. The washing step was repeated and then the cells were incubated with a cell permeabilizing solution (0.1% Tween in PHEM) for 5 minutes at room temperature. Samples were washed and incubated with 1% BSA blocking solution for 30 minutes at room temperature. Next, the primary antibody was incubated overnight at 4° C.: (i) caveolin-1 anti-human mouse 1:100 (Santa Cruz Biotechnology, Inc., USA); (ii) 1:50 anti-human LAMP-2 rabbit (Abcam). […] Next, green and red fluorescence were monitored by a Molecular Devices ImageXpress Micro Confocal Plate Scanning Microscope (Molecular Devices, Sunnyvale, CA) followed by evaluation of overlap between 488-Amblyomin-X and endocytosis markers using MetaXpress software (Molecular Devices, Sunnyvale, CA) or vesicle interactions by Imaris software.

Experiment [4] relates to SK-MEL-28 human melanoma cells. Put plainly: MTT cell viability assay, SK-MEL-28. It is filed as cell-based. The settings on record: SK-MEL-28, 48 h, increasing concentrations; Amblyomin-X 20 μM.
Source text: as §1, §2

In experiment [5] the test system is MIA PaCa-2 pancreatic adenocarcinoma cells. Briefly: MTT cell viability assay, MIA PaCa-2. To be noted: MIA PaCa-2, 48 h, increasing concentrations; Amblyomin-X 20 μM. It is filed as cell-based, human.
Source text: as §1, §2

For the next experiment, the system named is HUVECs. Put plainly: Charge delivery capacity, uptake of Alexa 488 labelled peptides by HUVECs (HCS). It is filed as cell-based, human. To be noted: for uptake by HUVECs (HCS): 10 μM; for detection within HUVECs (HCS): after 4 h, 0.5, 1, 10 and 20 μM. As to the method:
Endothelial cell culture was obtained from umbilical cords by digestion of umbilical cord veins with collagenase as described previously (19) with some modifications (20). Endothelial cells between the first and third passage were used for all experiments. Cells were seeded in 96-well culture plates (Advance, Greiner), special for immunofluorescence, at a density of 8×10^3 cells/well pre-coated with 2% (w/v) gelatin in EGM®-2 BulletKit® medium for HUVECs (Lonza, CC-3162) allowed to seed at 37° C. in a humidified atmosphere of 5% CO2. Cells were treated and incubated in RPMI medium containing 1% fetal bovine serum (FBS) and Alexa-Fluor 488 labeled peptides (C-ter/Seq ID No 1, P4/Seq ID No 2, or P4-Cter/Seq ID No 3) at different concentrations and times. After treatment, the cells were fixed with 4% paraformaldehyde and analyzed in ImageXpress Micro Confocal High-Content Imaging (HCS, Molecular Devices) in Widefield mode and the number of vesicles containing the peptides in the cells was quantified using MetaXpress High-Content Image Acquisition and Analysis Software (Molecular Devices).
Peptides Cter, P4 and P4-C-ter were labeled with cell-impermeable Alexa Fluor 488. The capacity of P4 and P4-Cter peptides bound to Alexa 488 by HUVECs at 1 h, 2 h and 4 h was analyzed using different concentrations: 0.5 μM, 1 μM, 10 μM and 20 μM (FIG. 9). This was compared with uptake of C-ter peptide linked to Alexa 488 (concentration of 0.5 μM, 1 μM, 10 μM and 20 μM) after 4 hours, as shown in previous experiments for SK-MEL-28 (FIG. 3).

For the molecule “C-ter: polypeptide of SEQ ID No. 1, 50 amino acids, carboxy-terminal end of Amblyomin-X, prepared by chemical synthesis (EEQTHFHFESPKLISFKVQDYWILNDIMKKNLTGISLKSEEEDADSGEID)”, the “cell viability (MTT)” value in [1] was “decreasing the viability of RENCA by 1 μM”; in experiment [2], “no change was observed”; in experiment [3] it was “no change was observed”; in [4], “no change was observed”; in experiment [5], “no change was observed”. The “cells positive for nuclear translocation” value in the experiment with Mia PaCa-2 (MIA PaCa-2) and in the experiment with SK-MEL-28 (SK-MEL-28) was “few cells were positive” each time. Further, the “Uptake by tumor cells” value in the experiment on Mia PaCa-2 (Mia PaCa-2, 0.25 h) turned out to be 3.45 ± 1.34; in the experiment on Mia PaCa-2 (Mia PaCa-2, 0.5 h), 4.84 ± 1.95; with Mia PaCa-2 (Mia PaCa-2, 1 h) it was 13.74 ± 7.15; with Mia PaCa-2 (Mia PaCa-2, 2 h), 604.99 ± 24.47; in the experiment on Mia PaCa-2 (Mia PaCa-2, 4 h) it was 976.55 ± 74.55; in the experiment on SK-MEL-28 (SK-MEL-28, 0.25 h), 30.84 ± 17.2. Moreover, the “Uptake by tumor cells” value was 35.56 ± 21.09 in the experiment with SK-MEL-28 (SK-MEL-28, 0.5 h); 62.17 ± 11.20 in the experiment with SK-MEL-28 (SK-MEL-28, 1 h); 558.48 ± 189.00 in the experiment with SK-MEL-28 (SK-MEL-28, 2 h); 1210.74 ± 379.14 in the experiment with SK-MEL-28 (SK-MEL-28, 4 h). Besides, the “uptake by cells (green fluorescence, confocal)” value in the experiment on SK-MEL-28 (SK-MEL-28, 20 μM, 4 h, Alexa Fluor 488 complexed) was “taken up”. For the same molecule, the “uptake by non-tumor cells” value in the experiment on HDFa and with HUVEC was “uptake by these cells” in each case. Moreover, the “uptake after pretreatment with Na3VO4” value in the experiment with SK-MEL-28 cells (SK-MEL-28, Na3VO4 pretreatment, then 4 h) was “not affected”. In the experiment on SK-MEL-28 cells (pretreatment with Na3VO4 or Annexin V), the “tumor cell penetration after pretreatment with Na3VO4 or Annexin V” value was “retains its ability to penetrate tumor cells”. Moreover, the “overlap with endocytosis markers (dextran, CTxB, transferrin)” value with Tumor cell lines (Alexa Fluor 555 labelled markers, shortest treatment time) is “the highest were with CTxB”. For the same molecule, the “co-localization with late endosomal markers” value in the experiment with Tumor cell lines (Lyso Tracker, LAMP-2) is “found in co-localization with late endosomal markers, Lyso Tracker and LAMP-2”. The “co-localization with cav-1” value in the experiment with Tumor cell lines (indirect immunofluorescence) is “occurred mainly after 4 hours of treatment”.

For the molecule “P4-Alexa 488: peptide P4 (SEQ ID No. 2) labeled with Alexa Fluor 488 (YAIGYSSKDYK; also: Alexa Fluor 488 label) [reference compound]”, the “uptake by HUVECs (HCS)” value in the experiment on HUVECs (4 h) is “poorly detected”. Besides, the “detection within HUVECs (HCS)” value in the experiment with HUVECs is on record as “not detected within cells”.

B1: P4-Cter-Alexa488: hybrid peptide P4-Cter (SEQ ID No. 3) labeled with Alexa Fluor 488 (conjugate)
chain: YAIGYSSKDYKEEQTHFHFESPKLISFKVQDYWILNDIMKKNLTGISLKSEEEDADSGEID
modifications: also: Alexa Fluor 488 label
B1: the “uptake by HUVECs (HCS)” value with HUVECs (1 h) is “efficiently absorbed”. In addition, the “detection within HUVECs (HCS)” value with HUVECs is “captured and quantified”.
